This is an account of results in ChEMBL document CHEMBL3045312, “Projuvenoids: synthesis and biological evaluation of sulfenylated, sulfinylated, and sulfonylated carbamates” (Arch Insect Biochem Physiol, 1996).

Calls of active or inactive are those of the source. The calls are words filed in the database; no cut-off is given here.

The test system of series [1] is Pieris brassicae. As to the kind of experiment: Juvenile hormone mimicking activity against fifth-instar larval stage of Pieris brassicae reared on cabbage plants assessed as morphogenetic changes measured per larvae applied topically to dorsal surface of larvae measured post pupal ecdysis. The class given is functional.
Series [2] deals with Sitophilus oryzae. The experiment in a line: Juvenile hormone mimicking activity against adult Sitophilus oryzae (rice weevil) infested wheat kernels assessed as suppression of progeny development at 1 ppm applied through diet for 21 days measured after 9 weeks. The class given is functional, organism-based.
Series [3] has as its system Sitophilus oryzae. As to the kind of experiment: Juvenile hormone mimicking activity against adult Sitophilus oryzae (rice weevil) infested wheat kernels assessed as suppression of progeny development at 1 to 100 ppm applied through diet for 21 days measured after 9 weeks. It counts as functional, organism-based.
Series [4] in a line: Lipophilicity, log P of the compound. The class given is physicochemical. The following applies: octanol/water.
In series [5] the test system is Pieris brassicae. As to the kind of experiment: Ratio of fenoxycarb ID50 to compound ID50 for fifth-instar larval stage of Pieris brassicae. The class given is functional.
The test system of series [6] is Bemisia tabaci. As to the kind of experiment: Juvenile hormone mimicking activity against Bemisia tabaci (sweet potato whitefly) infested cotton assessed as suppression of nymph emergence at 400 g/ha applied as wettable powder through spray measured on day 12 under field conditions (reference value: 92%). The class given is functional.
Series [7] deals with Bemisia tabaci. The experiment in a line: Juvenile hormone mimicking activity against Bemisia tabaci (sweet potato whitefly) infested cotton assessed as suppression of adult emergence at 400 g/ha applied as wettable powder through spray measured on day 12 under field conditions (reference value: 89%). It counts as functional.
In series [8] the test system is Bemisia tabaci. As to the kind of experiment: Juvenile hormone mimicking activity against Bemisia tabaci (sweet potato whitefly) infested cotton assessed as suppression of adult emergence at 100 g/ha applied as wettable powder through spray measured on day 12 under field conditions (reference value: 89%). The class given is functional.
Series [9] has as its system Bemisia tabaci. The experiment in a line: Juvenile hormone mimicking activity against Bemisia tabaci (sweet potato whitefly) infested cotton assessed as suppression of adult emergence at 200 g/ha applied as wettable powder through spray measured on day 12 under field conditions (reference value: 89%). It counts as functional.
Series [10] concerns Bemisia tabaci. As to the kind of experiment: Juvenile hormone mimicking activity against Bemisia tabaci (sweet potato whitefly) infested cotton assessed as suppression of nymph emergence at 200 g/ha applied as wettable powder through spray measured on day 12 under field conditions (reference value: 92%). It counts as functional.
Series [11] deals with Bemisia tabaci. The experiment in a line: Juvenile hormone mimicking activity against Bemisia tabaci (sweet potato whitefly) infested cotton assessed as suppression of nymph emergence at 100 g/ha applied as wettable powder through spray measured on day 12 under field conditions (reference value: 92%). It counts as functional.
Series [12] deals with Bemisia tabaci. The experiment in a line: Juvenile hormone mimicking activity against Bemisia tabaci (sweet potato whitefly) infested cotton assessed as suppression of nymph emergence at 200 g/ha applied as emulsifiable concentrate through spray measured on day 12 under field conditions (reference value: 92%). It counts as functional.
The test system of series [13] is Bemisia tabaci. As to the kind of experiment: Juvenile hormone mimicking activity against Bemisia tabaci (sweet potato whitefly) infested cotton assessed as suppression of adult emergence at 200 g/ha applied as emulsifiable concentrate through spray measured on day 12 under field conditions (reference value: 89%). It counts as functional.
Series [14] has as its system Bemisia tabaci. As to the kind of experiment: Juvenile hormone mimicking activity against Bemisia tabaci (sweet potato whitefly) infested cotton assessed as suppression of nymph emergence at 100 g/ha applied as emulsifiable concentrate through spray measured on day 12 under field conditions (reference value: 92%). It counts as functional.
The test system of series [15] is Bemisia tabaci. As to the kind of experiment: Juvenile hormone mimicking activity against Bemisia tabaci (sweet potato whitefly) infested cotton assessed as suppression of adult emergence at 50 g/ha applied as emulsifiable concentrate through spray measured on day 12 under field conditions (reference value: 89%). It counts as functional.
Series [16] has as its system Bemisia tabaci. The experiment in a line: Juvenile hormone mimicking activity against Bemisia tabaci (sweet potato whitefly) infested cotton assessed as suppression of adult emergence at 100 g/ha applied as emulsifiable concentrate through spray measured on day 12 under field conditions (reference value: 89%). It counts as functional.
Series [17] deals with Bemisia tabaci. As to the kind of experiment: Juvenile hormone mimicking activity against Bemisia tabaci (sweet potato whitefly) infested cotton assessed as suppression of nymph emergence at 50 g/ha applied as emulsifiable concentrate through spray measured on day 12 under field conditions (reference value: 92%). It counts as functional.

On to `CCOC(=O)NCCOc1ccc(Oc2ccc(Cl)cc2)cc1`, for which, in series [1], the ID50 worked out at 22 ng.
`CC(C)OC(=O)NCCOc1ccc(Oc2ccccc2)cc1`: the ID50 in series [1] is reported as 24 ng.
For the compound `CCCCCCCCCCCCCCCCCN(SN(CCOc1ccc(Oc2ccccc2)cc1)C(=O)OCC)C(=O)OCc1ccccc1`, the result in series [2] was Active. The ID50 in series [1] was found to be 6.4 ng.
As for `CCOC(=O)N(CCOc1ccc(Oc2ccccc2)cc1)S(=O)(=O)N(CCOc1ccc(Oc2ccccc2)cc1)C(=O)OCC`, the ID50 in series [1] is greater than 100 ng.
On to `COC(C)(C)CCC[C@H](C)C/C=C/C(C)=C/C(=O)OC(C)C` [METHOPRENE], for which the outcome in series [3] was Active. Besides, in [1], the ID50 turned out to be 60 ng. In series [4], this compound showed a logP of 5.21.
`CCCCCCCCOC(=O)N(C)SN(CCOc1ccc(Oc2ccccc2)cc1)C(=O)OCC`: the Ratio in series [5] turned out to be 6. For the same compound, the ID50 in series [1] was 3.4 ng.
As to `CC(C)OC(=O)N(CCOc1ccc(Oc2ccccc2)cc1)SN(CCOc1ccc(Oc2ccccc2)cc1)C(=O)OC(C)C`, in series [1], the ID50 is given as 22 ng.
On the same count and under the same terms, the result for `CCOC(=O)N(CCOc1ccc(Oc2ccc(Cl)cc2)cc1)SN(CCOc1ccc(Oc2ccc(Cl)cc2)cc1)C(=O)OCC` reads 26 ng; that for `CC(C)OC(=O)N(CCOc1ccc(Oc2ccccc2)cc1)[S+]([O-])N(CCOc1ccc(Oc2ccccc2)cc1)C(=O)OC(C)C`, 20 ng.
As to `CCCCCCCCCCCCOC(=O)N(CCCC)SN(CCOc1ccc(Oc2ccccc2)cc1)C(=O)OCC`, the Ratio in [5] is given as 6. Moreover, in series [2], the result was Active. In series [1], the ID50 worked out at 2.8 ng.
Take `CCOC(=O)CC(SP(=S)(OC)OC)C(=O)OCC` (configuration not stated): the result in series [3] was Active.
Regarding `CCOC(=O)NCCOc1ccc(Oc2ccccc2)cc1` [PHENOXYCARB], the Activity in series [6] came to 21%; in series [7], 20%; in series [8] it was 43%; in series [9] it was 29%; in series [10] it was 34%; in series [11], 41%. For the same compound, in series [2], the result was Active. Further, the ID50 in series [1] came out at 21 ng. This compound also gave a log partition coefficient (logP) in [4] of 4.07.
With `CCOC(=O)N(CCOc1ccc(Oc2ccccc2)cc1)[S+]([O-])N(CCOc1ccc(Oc2ccccc2)cc1)C(=O)OCC`, the Activity in series [12] is listed as 16%; in series [13] it was 19%; in [14], 33%; in [15], 36%; in series [16] it was 31%; in [17], 47%. Besides, the result in series [2] was Active. Besides, the ID50 in series [1] was 2.2 ng.
Regarding `CCOC(=O)N(CCOc1ccc(Oc2ccccc2)cc1)SN(CCOc1ccc(Oc2ccccc2)cc1)C(=O)OCC`, the outcome in series [2] was Active. Also, the ID50 in [1] is recorded as 2.8 ng.
With `CCOC(=O)N(CCOc1ccc(Oc2ccc(Cl)cc2)cc1)[S+]([O-])N(CCOc1ccc(Oc2ccc(Cl)cc2)cc1)C(=O)OCC`, the ID50 in series [1] is recorded as 9 ng.
